Measured values as given in patent US20220039384A1, “SELECTIVE WEED CONTROL WITH HALAUXIFEN OR 4-AMINO-3-CHLORO-5-FLUORO-6-(4-CHLORO-2-FLUORO-3-METHOXYPHENYL) PYRIDINE-2-CARBOXYLIC ACID OR DERIVATIVES THEREOF IN VINEYARDS OR PERENNIAL CROPS” (Corteva Agriscience LLC, priority 2013, published 2022).

What was measured:
Type in all cases: in vivo
[1] = system: ERICA (Conyza canadensis, horseweed); assay: Field trial, pre-emergence dormant application (December), California vineyards: visual weed control; details: applied prior to weed emergence
Description: (§1) As used herein, selective pre- and post-emergence control of undesirable vegetation means preventing, reducing, killing, or otherwise adversely modifying the development of the undesirable vegetation in the presence of crop plants with limited adverse effect on the crop plants. For example, a broadleaf weed control of 80% (rated visually) with crop injury of less than or equal to 20% (rated visually) would constitute selective control. In some embodiments the adverse effect on crop plants is limited to less than 10% visually rated crop injury. Visual crop injury is a composite rating accounting for all phytotoxic effects including chlorosis, necrosis, growth inhibition, epinasty, delays in maturity and seed or fruit deformity. Visual weed control is a composite rating accounting for reductions in pest plant biomass and/or stand reduction.
(§2) Small plot research experiments were conducted in Fresno, Calif., USA to evaluate the pre-emergence and post-emergence herbicidal weed control activity and the vines crop tolerance to pre-emergence and post-emergence application of Compound I and Compound II to the weeds. Application water volume of 100 to 187 liters per hectare (L/ha) was used for all experiments. All treatments were applied with a standard small plot carbon dioxide (CO2) backpack sprayer. All treatments were tank-mixed with Crop Oil Concentrate (COC), a well known adjuvant, at 2.34 L/ha. Experimental emulsifiable concentrate (EC) formulations were used for Compounds I and II. The dimethylammonium (DMA) salt of glyphosate was used in all trials. Pindar® GT is a commercial formulation containing a pre-mix of penoxsulam+oxyfluorfen (10+476 grams of active ingredient per liter (g ai/L), respectively). Vine crop stage was dormant (no leaves on the vines during the winter) or early spring growth at the time of Compound I or Compound II application. Generally, weeds were not emerged for the pre-emergence treatments or were at the two to six-leaf stage at the time of the post-emergence herbicide application.
(§3) Tables 1, 2 and 6 provide weed control results from pre-emergence applications of Compounds I and/or II prior to weed emergence; Tables 4, 7 and 8 provide weed control results from post-emergence applications of Compounds I and/or II applied to actively growing weeds; Tables 3 and 5 provide vine response data from pre-emergence and post-emergence applications of Compound I respectively.

[2] = system: EROCI (Erodium cicutarium, redstem filaree); assay: as above; details: applied prior to weed emergence
Description: as §1, §2, §3

[3] = system: MALPA (Malva parviflora, smallflower malva); assay: as above; details: applied prior to weed emergence
Description: as §1, §2, §3

[4] = system: PANCA (Panicum capillare, witchgrass); assay: as above; details: applied prior to weed emergence
Description: as §1, §2, §3

[5] = system: POAAN (Poa annua, annual bluegrass); assay: as above; details: applied prior to weed emergence
Description: as §1, §2, §3

[6] = system: AMSIN (Amsinckia intermedia, coast fiddleneck); assay: Field trial, pre-emergence application (February), California vineyards: visual weed control
Description: as §1, §2, §3

[7] = system: CAPBP (Capsella bursa-pastoris, Shepherd's purse); assay: as above
Description: as §1, §2, §3

[8] = system: CLNCM (Calandrinia ciliata, rock purslane); assay: as above
Description: as §1, §2, §3

COC(=O)c1nc(-c2ccc(Cl)c(OC)c2F)cc(N)c1Cl [I—Me, methyl 4-amino-3-chloro-6-(4-chloro-2-fluoro-3-methoxyphenyl)pyridine-2-carboxylate]
% Visual Control 90 DAA ERICA ([1]; 10 g ae/ha): 75% | % Visual Control 184 DAA ERICA ([1]; 10 g ae/ha): 92% | % Visual Control 90 DAA ERICA ([1]; 20 g ae/ha): 100% | % Visual Control 184 DAA ERICA ([1]; 20 g ae/ha): 97% | % Visual Control 90 DAA ERICA ([1]; 40 g ae/ha): 100% | % Visual Control 184 DAA ERICA ([1]; 40 g ae/ha): 100% | % Visual Control 90 DAA EROCI ([2]; 10 g ae/ha): 58% | % Visual Control 184 DAA EROCI ([2]; 10 g ae/ha): 47% | % Visual Control 90 DAA EROCI ([2]; 20 g ae/ha): 72% | % Visual Control 184 DAA EROCI ([2]; 20 g ae/ha): 52% | % Visual Control 90 DAA EROCI ([2]; 40 g ae/ha): 82% | % Visual Control 184 DAA EROCI ([2]; 40 g ae/ha): 55% | % Visual Control 90 DAA MALPA ([3]; 10 g ae/ha): 85% | % Visual Control 184 DAA MALPA ([3]; 10 g ae/ha): 45% | % Visual Control 90 DAA MALPA ([3]; 20 g ae/ha): 88% | % Visual Control 184 DAA MALPA ([3]; 20 g ae/ha): 60% | % Visual Control 90 DAA MALPA ([3]; 40 g ae/ha): 89% | % Visual Control 184 DAA MALPA ([3]; 40 g ae/ha): 47% | % Visual Control 184 DAA PANCA ([4]; 10 g ae/ha): 60% | % Visual Control 184 DAA PANCA ([4]; 20 g ae/ha): 33.3% | % Visual Control 184 DAA PANCA ([4]; 40 g ae/ha): 63.3% | % Visual Control 90 DAA POAAN ([5]; 10 g ae/ha): 58% | % Visual Control 184 DAA POAAN ([5]; 10 g ae/ha): 48% | % Visual Control 90 DAA POAAN ([5]; 20 g ae/ha): 65% | % Visual Control 184 DAA POAAN ([5]; 20 g ae/ha): 28% | % Visual Control 90 DAA POAAN ([5]; 40 g ae/ha): 63% | % Visual Control 184 DAA POAAN ([5]; 40 g ae/ha): 47% | % Visual Control 48 DAA AMSIN ([6]; 2.5 g ae/ha): 25% | % Visual Control 48 DAA AMSIN ([6]; 5 g ae/ha): 43.3% | % Visual Control 48 DAA AMSIN ([6]; 10 g ae/ha): 36.7% | % Visual Control 48 DAA CAPBP ([7]; 2.5 g ae/ha): 50% | % Visual Control 48 DAA CAPBP ([7]; 5 g ae/ha): 76.7% | % Visual Control 48 DAA CAPBP ([7]; 10 g ae/ha): 90% | % Visual Control 48 DAA CLNCM ([8]; 2.5 g ae/ha): 27.6% | % Visual Control 48 DAA CLNCM ([8]; 5 g ae/ha): 43.3% | % Visual Control 48 DAA CLNCM ([8]; 10 g ae/ha): 86.7%
